Results from US10590373B2, “Systems and methods for biomimetic fluid processing” (BRIGHAM AND WOMEN'S HOSPITAL, INC., priority 2014, dated 2020).

System: mouse fetal liver culture-derived (mFLC) MKs
Experiment: shear-induced proPLT production and PLT release by MKs in the microfluidic device after drug incubation
Type: cell-based
Conditions: for PLT release: under both static and physiological shear conditions; for shear-induced proPLT production: physiological shear
Protocol: Devices were coated with a 0.22 μm filtered 10% BSA solution (Millipore, Billerica, Mass.) for 30 minutes to prevent direct cell contact with glass. Referring to FIG. 1, primary MKs and media were infused in the first inlet 118 and second inlet 122, respectively, at a rate of 12.5 μL/hour using a two-syringe microfluidic pump (Harvard Apparatus, Holliston, Mass.). When the first outlet 120 was closed, both input solutions were redirected toward the second outlet 124 causing primary MKs to trap.
For shear cultures, MKs were loaded onto ‘naked’ microfluidic devices (only BSA-coated), and the infusion rate was doubled incrementally from 12.5 μL/hr to 200 μL/hr over a 2 hour period. For static cultures, isolated MKs were pipetted into chambers formed by mounting a glass coverslide coated with 3% BSA onto a […] with a 1 cm hole and cultured for 24 hours. Both static and shear cultures were maintained at 37 degrees C. and 5 percent CO2 and examined on a Zeiss Axiovert 200 (Carl Zeiss, Thornwood, N.Y.) equipped with 10× (numerical aperature, 0.30) Plan-Neofluar air objective. Differential interference contrast (DIC) images were obtained using CCD camera (Hamamatsu Photonics, Boston, Mass.) at either 2 second (shear cultures) or 20 minute (static cultures) intervals. Images were analyzed using the Metamorph version 7.7.2.0 image analysis software (Molecular Devices, Sunnyvale, Calif., USA) and ImageJ software version 1.47p. ProPLT extension rates were determined manually for over 200 MKs from at least three independent samples. For PLT spreading experiments, effluent was collected from microfluidic devices after 2 hours and pipetted into uncoated static culture chambers, described above. PLTs were permitted to contact glass by gravity sedimentation and spreading was captured at 5 second intervals over a 5 minute period.
In vivo BM MKs extend proPLTs in the direction of blood flow and release PLTs, proPLTs, large cytoplasmic fragments (prePLTs), and even whole MKs into sinusoidal blood vessels which may be trapping in the pulmonary microvascular bed, or otherwise maturing in the circulation. To determine the effect of physiological shear on PLT production, mouse fetal liver culture-derived (mFLC) MKs were isolated on culture day 4 and characterized by size and ploidy before being infused into the microfluidic device (shown in FIG. 3A).
While shear rates were kept constant, proPLT extension rates varied at different positions along the shaft, predictive of a regulated cytoskeletal driven mechanism of proPLT elongation (shown in FIG. 4C). […]

## CCCCCC[C@@H]([C@@H](C)O)n1cnc2c(N)ncnc21 (racemic) [EHNA]
1 mM EHNA
  PLT release: inhibited
MKs incubated with 1 mM EHNA prior to infusion in microfluidic device
  shear-induced proPLT production: inhibit

## C/C1=C\[C@H](C)C[C@H](C)OC(=O)C[C@H](c2ccc(O)cc2)NC(=O)[C@@H](Cc2c(Br)[nH]c3ccccc23)N(C)C(=O)[C@H](C)NC(=O)[C@@H](C)C1 [Jas, Jasplankinolide]
5 μM Jas
  PLT release: inhibited
MKs incubated with 5 μM Jas prior to infusion in microfluidic device
  shear-induced proPLT production: inhibit
